Data taken from patent US20100216779A1 (GLAXOSMITHKLINE LLC, priority 2007, published 2010).

Tests used:
[1] = system: LISN cell (mouse 3T3 fibroblasts transduced with human IGF-1R) tumors; test: In vivo efficacy, mice bearing LISN cell tumors; conditions: LISN
Procedure: E. In Vivo Efficacy—Mouse Models
The efficacy of the compounds of Examples 57 and 58 were assessed together in an in vivo efficacy experiment performed on mice bearing LISN cell (mouse 3T3 fibroblasts transduced with human IGF-1R) tumors. Fifty six female nude mice bearing subcutaneous LISN cell tumors were measured for tumor size and body weight and block randomized into seven groups of eight mice with an equal average tumor volume of approximately 200 mm3. Mice were dosed with either vehicle (20% SBE pH3.5), Example 57 or Example 58. The dosing schedules for each compound were based on previous experiments with the compounds and doses chosen to give the highest tumor growth inhibition and a dose response. Example 58 was dosed at 30, 100 and 300 mg/kg QD for 21 days while Example 57 was dosed at 30 mg/kg QD for 21 days, 15 mg/kg BID for 21 days and 30 mg/kg QDx3 days/week for 3 weeks.
The tumors on mice being treated with vehicle grew with the expected exponential growth throughout the 21 day study. […] The lower dose of 30 mg/kg of Example 58 achieved 28% tumor growth inhibition.
The efficacy of the compounds of Examples 237 and 219 were assessed together in an in vivo efficacy experiment performed on mice bearing LISN cell (mouse 3T3 fibroblasts transduced with human IGF-1R) tumors. Sixty four female nude mice bearing subcutaneous LISN cell tumors were measured for tumor size and body weight and block randomized into eight groups of eight mice with an equal average tumor volume of approximately 362 mm^3. Mice were dosed with either vehicle (20% SBE pH3.5), Example 237 or Example 219. The dosing schedules for each compound were based on previous experiments with the compounds and doses chosen to give the highest tumor growth inhibition and a dose response. Example 237 was administered at 30 and 60 mg/kg QD for 21 days and 30 mg/kg BID for 21 days while Example 219 was administered at 50 and 100 mg/kg QD for 21 days, 25 and 50 mg/kg BID for 21 days.
The tumors on mice being treated with vehicle grew with the expected exponential growth throughout the 21 day study. […] The lower dose of 30 mg/kg QD of Example 237 achieved 15% tumor growth inhibition at day 21 (note: 2 animals were euthanized prior to the last measurement). […] This recovered to 3% by the end of dosing and fully recovered after dosing was concluded. […] This recovered fully within 4 days after the completion of dosing.

[2] = system: BT474 cell tumors (breast carcinoma cell line); test: In vivo efficacy, BT474 tumor bearing mice; design: species or system mouse
Procedure: In addition to the LISN xenograft efficacy studies, Example 57 has also been assessed in vivo in two other mouse models of cancer, including: Colo-205 tumor bearing mice (colon carcinoma cell line) and BT474 tumor bearing mice (breast carcinoma cell line). Forty female nude mice bearing Colo-205 tumors (average tumor size of 200 mm3) were randomized into five groups of eight mice and dosed with either vehicle (20% SBE pH3.5) or Example 57 at 100, 30, 10 mg/kg QD or 30 mg/kg BID for 21 days. The groups of mice dosed with the higher doses of Example 57 (100 mg/kg QD and 30 mg/kg BID) lost greater than 20% body weight within 10 days of dosing so were taken off the study and allowed to recover. […] The higher doses of 100 mg/kg QDx10 and 30 mg/kg BIDx10 achieved 72 and 49% tumor growth inhibition respectively.
Due to the body weight loss seen with the higher doses in the Colo-205 xenograft efficacy study, the dosing regime was altered for the follow up BT474 study. Forty female nude mice bearing subcutaneous BT474 cell tumors (average tumor size of 200 mm3) were randomized into five groups each containing eight mice and dosed with either vehicle (20% SBE pH3.5) or Example 57 at 60, 30 or 15 mg/kg QD or 15 mg/kg BID for 21 days. Note the maximal QD dose was reduced from 100 mg/kg to 60 mg/kg and the BID dose reduced from 30 mg/kg to 15 mg/kg. In addition to these changes the mice in this study were given weekend holidays from dosing.

For `COc1cc(N2CCC(N3CCN(CCF)CC3)CC2)ccc1Nc1nccc(-c2c(-c3cccc(C(=O)Nc4c(F)cccc4F)c3)nc3ccccn23)n1` [Example 57, N-(2,6-difluorophenyl)-3-[3-(2-{[4-{4-[4-(2-fluoroethyl)-1-piperazinyl]-1-piperidinyl}-2-(methyloxy)phenyl]amino}-4-pyrimidinyl)imidazo[1,2-a]pyridin-2-yl]benzamide], the tumor growth inhibition ([1]; 15 mg/kg BID for 21 days) was 50%, the body weight loss ([1]; 30 mg/kg QD and 15 mg/kg BID treated groups) was “no body weight loss” and the tumor growth inhibition ([1]; 30 mg/kg QD for 21 days) was 34%. The tumor growth inhibition ([1]; 30 mg/kg QDx3 days/week for 3 weeks) was 69%, the body weight loss ([1]; 30 mg/kg QDx3 days/week for 3 weeks, over the three consecutive days of dosing, recovered in between doses) was “significant body weight loss” and the tumor growth inhibition ([2]; BT474, 15 mg/kg BIDx21, weekend holidays from dosing) was 54%. The tumor growth inhibition ([2]; BT474, 30 mg/kg QDx21, weekend holidays from dosing) was 37%, the tumor growth inhibition ([2]; BT474, 60 mg/kg QDx21, weekend holidays from dosing) was 37% and the body weight loss ([2]; BT474, all groups) was “no body weight loss”. It also gave a tumor growth inhibition ([2]; BT474, third QDx21 dose group (15 mg/kg QD per study design), weekend holidays from dosing) of 16%.
